Assay results: patent US9162992B2, “Compounds and compositions for treatment of breathing control disorders or diseases” (GALLEON PHARMACEUTICALS, INC., priority 2010, dated 2015)
Converted amounts (≈) assume the structure as drawn. “And” between values parts separate entries of the source, which are not always exact repeats. Equal values may be shown once. Read-outs that look alike come from different tables or passages of the source.

What was measured:
[1] = Solubility as a function of pH (100 mM citric acid, room temperature); assay type: physicochemical; details: for solubility / solubility thermodynamic: thermodynamic from solid; for solubility thermodynamic: 100 mM citric acid buffer, read-out: (XXXVI) concentration; for (XXXVI) concentration: not saturated
Experimental: A solution of (XXXVI) of concentration ˜[…] in 100 mM citric acid at pH 2.5 was prepared. About 150 μL aliquots of this solution were transferred into 6 separate glass HPLC vials. Each aliquot was titrated with 6N sodium hydroxide to different pH values in the range 3-5.5 (Table 12A). All the samples, including the solution at pH 2.5, were shaken overnight at room temperature using a gyratory shaker. After shaking, the samples were evaluated visually for the presence of precipitate and were then spin filtered through 0.45 μm syringe tip filters (4 mm diameter) at 3,000 rpm for 20 min. The final pH values of the filtrates were measured. The filtrates were then diluted appropriately and analyzed for (XXXV) concentration using the HPLC assay.
This equation is a simplified representation of solubility equilibrium for weak bases that assumes that total solubility is much larger than the solubility of the free base in the pH range of interest: log S=log S0+log(1+10^pKa-pH) Equation 1 where, ‘S’ is total solubility; ‘S0’ is the solubility of the free base.

[2] = Solubility in solvents and IV solutions; assay type: physicochemical
Experimental: The solubility of (XXXXVI) and XXXV was evaluated in various solvents and IV solutions. Due to limits on the API supply at the time the study was conducted, most of the solvent systems were evaluated to a level of only 100 mg/mL even if the solution was not saturated at this level. Only in water was an attempt made to reach saturation solubility, regardless of how high that solubility might be. Solubility of the salt/free base in each solvent was evaluated in duplicate.
For solubility in water, drug was added with intermittent shaking to ensure that excess undissolved drug is present indicating saturation […]. The filtrates were diluted appropriately and analyzed for (XXXV) concentration by HPLC.

[3] = molecular target: T1, BK potassium channel expressed in GH3 cells (Rattus norvegicus, UniProt Q62976); experiment: BK potassium channel current in GH3 cells, inside-out patches; assay type: cell-based
T1 construct: endogenous in cells; host or cells: GH3 cells
T1 sequence (Q62976 whole entry): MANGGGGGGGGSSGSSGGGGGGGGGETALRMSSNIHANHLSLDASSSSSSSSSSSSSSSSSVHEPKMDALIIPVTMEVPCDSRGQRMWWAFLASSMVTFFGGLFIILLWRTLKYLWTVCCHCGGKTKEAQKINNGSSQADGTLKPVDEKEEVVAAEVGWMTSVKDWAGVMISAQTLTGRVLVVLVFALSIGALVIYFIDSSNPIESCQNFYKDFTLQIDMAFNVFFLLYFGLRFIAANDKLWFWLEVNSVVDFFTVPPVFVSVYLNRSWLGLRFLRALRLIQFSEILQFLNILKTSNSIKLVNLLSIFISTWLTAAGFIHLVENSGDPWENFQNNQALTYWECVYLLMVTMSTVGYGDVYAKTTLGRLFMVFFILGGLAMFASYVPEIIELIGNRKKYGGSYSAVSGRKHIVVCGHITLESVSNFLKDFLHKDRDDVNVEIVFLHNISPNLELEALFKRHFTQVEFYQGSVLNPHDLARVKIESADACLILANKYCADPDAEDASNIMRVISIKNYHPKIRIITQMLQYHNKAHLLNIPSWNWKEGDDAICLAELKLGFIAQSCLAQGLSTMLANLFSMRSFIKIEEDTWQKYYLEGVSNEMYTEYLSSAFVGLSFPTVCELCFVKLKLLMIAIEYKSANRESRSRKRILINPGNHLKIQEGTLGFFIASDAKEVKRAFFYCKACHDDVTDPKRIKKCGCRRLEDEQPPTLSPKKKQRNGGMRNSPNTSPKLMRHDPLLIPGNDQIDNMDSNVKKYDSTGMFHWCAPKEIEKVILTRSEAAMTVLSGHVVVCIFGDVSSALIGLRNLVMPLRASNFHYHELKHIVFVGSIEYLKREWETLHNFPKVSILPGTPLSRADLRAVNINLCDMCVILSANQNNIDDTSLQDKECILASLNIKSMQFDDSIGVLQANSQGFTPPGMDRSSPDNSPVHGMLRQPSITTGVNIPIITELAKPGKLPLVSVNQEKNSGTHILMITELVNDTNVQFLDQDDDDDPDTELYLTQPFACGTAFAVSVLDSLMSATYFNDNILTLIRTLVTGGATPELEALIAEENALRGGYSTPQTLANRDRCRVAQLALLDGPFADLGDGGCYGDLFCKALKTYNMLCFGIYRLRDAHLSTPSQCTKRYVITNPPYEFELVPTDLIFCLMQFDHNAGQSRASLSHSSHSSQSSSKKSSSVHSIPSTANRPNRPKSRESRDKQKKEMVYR
Experimental: Stock solutions of the test article were prepared in dimethylsulfoxide (DMSO) and stored frozen. Test article concentrations were prepared fresh daily by diluting stock solutions into a physiological saline solution (composition in mM): KCl, 125; CaCl2, 8.5; HEPES, 10; EGTA, 11.25; pH adjusted to 7.2 with KOH (prepared weekly and refrigerated until used). All test solutions contained 0.1% DMSO.
GH3 cells were grown in culture using standard procedures. Ionic currents were measured from inside-out patches of GH3 cells. Channel activity was monitored in symmetrical K^+ conditions with a holding potential of −60 mV. Activities before and in the presence of each concentration of test articles were recorded for ≧3 minutes, respectively.
Data acquisition and analyses were performed using the suite of pCLAMP (Ver. 8.2) programs (MDS-AT, Sunnyvale, Calif. Percent inhibition by test article was calculated using the following equation: 100*(NPocontrol−NPotest)/NPocontrol Results

human KCNK9/TASK-3 = molecular target: T2, human KCNK9/TASK-3 (Homo sapiens, UniProt Q9NPC2); experiment: Thallium flux through human TASK-3 (KCNK9-HEK cells); assay type: cell-based; details: Tl+ flux; 3 nM to 30 μM; read-out: hTASK-3 IC50
T2 construct: expressed in transfected cells; host or cells: HEK cells (tetracycline-inducible)
T2 sequence (Q9NPC2 whole entry): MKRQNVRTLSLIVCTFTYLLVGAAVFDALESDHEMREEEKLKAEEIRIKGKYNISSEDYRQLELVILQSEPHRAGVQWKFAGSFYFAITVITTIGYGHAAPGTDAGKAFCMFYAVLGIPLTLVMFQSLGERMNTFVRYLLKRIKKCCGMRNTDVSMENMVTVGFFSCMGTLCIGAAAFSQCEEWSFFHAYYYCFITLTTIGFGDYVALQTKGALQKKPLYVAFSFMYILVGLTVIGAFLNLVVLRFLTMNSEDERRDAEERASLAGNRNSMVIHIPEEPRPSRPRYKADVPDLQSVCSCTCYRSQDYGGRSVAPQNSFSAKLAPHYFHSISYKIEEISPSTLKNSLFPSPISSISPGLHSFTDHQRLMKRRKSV
Experimental: CHO cells expressing recombinant tetracycline-inducible rat KCNK3/TASK-1 (KCNK3-CHO cells) were plated in poly-D-lysine coated 384-well plates at a density of 6,000 cells/well (50 μl/well of 120,000 cells/mL) and allowed to incubate for 72 hrs in the presence of 5% CO2 and 1 μg/mL tetracycline at 30° C. HEK cells expressing recombinant tetracycline-inducible human KCNK9/TASK-3 (KCNK9-HEK cells) were plated at a density of 15,000 cells per well (50 μl/well, 300,000 cells/mL) and incubated overnight at 37° C. and 5% CO2 in the presence of 1 μg/mL tetracycline.
Drug plates were generated from 10 mM 100% DMSO mother plates. Compounds were transferred to 384-well drug plates and titrated with sequential 1:3 dilutions in 100% DMSO for a total of 9 dilutions. A dilution plate is made by taking 2.4 μl from the mother plate and adding to […] of assay buffer for a 12% DMSO dilution plate. From this dilution plate, a final daughter plate is generated by taking 1 μA of the dilution plate and adding to 40 μA of assay buffer for a final DMSO concentration of 0.3%. Each compound was evaluated in duplicate and the concentration range evaluated was 3 nM to 30 μM.
When thallium was added to extracellular solution with a stimulus to open channels, Tl^+ flowed down its concentration gradient into the cells and channel activity was detected with an indicator dye, FluxOR™, that increased in cytosolic fluorescence. The FluxOR™ indicator dye was loaded into cells as a membrane permeable acetoxymethyl ester. On the day of each assay, FluxOR™ assay buffer was made fresh from Hank's Balanced Saline Solution (HBSS) buffered with 20 mM HEPES and pH adjusted to 7.4 with NaOH. Dye loading solution was prepared per manufacturer's instructions, and 25 μl of dye solution applied to each well with a multidropper after plating medium was removed manually from cells. Dye was allowed to load for 90 minutes at room temperature in the dark.
After the 90 min dye loading incubation and subsequent manual dye removal, 24 μl of the drug daughter plate was transfer to cell plates by a cybi-well system and then incubated at room temperature for 20 minutes to allow for equilibration within wells. Stimulation buffer was prepared from 5× chloride-free buffer, thallium, and potassium sulfate containing 5 times the desired final assay concentration of 10 mM K^+ 2.8 mM Tl^+. Cell plates were then transferred to an FDSS 6000 kinetic imaging plate reader (Hamamatsu). Fluorescence at 525 nm (excitation 488 nm) was measured for 10 seconds at 1 Hz to establish baseline for the entire plate. After baseline was established, 6 μl/well of stimulation buffer was added and fluorescence signal recorded for another 140 seconds.
From the fluorescence signals in the absence and presence of Galleon compounds, Inhibitory concentration curves were plotted and IC50 values were estimated using a curve fitting algorithm.

## CCCNc1nc(NCCC)nc(N(C)OC)n1 [XXXV, N-(4,6-Bis-n-propylamino-[1,3,5]triazin-2-yl)-N,O-dimethyl-hydroxylamine]
[1]; aqueous buffer
  solubility: 0.18 mg/mL (≈ 0.708 mM)
[1]; pH 3.16, aqueous buffer
  solubility: 50 mg/mL (≈ 197 mM)
[1]; pH 3.46, aqueous buffer
  solubility: 25 mg/mL (≈ 98.3 mM)
[1]; pH 3.5
  pH dependence of solubility: solubility was high at pH 3.5 or lower
[1]; pH 3.86, aqueous buffer
  solubility: 10 mg/mL (≈ 39.3 mM)
[2]; organic solvent or mixture, thermodynamic from solid, solubility
  solubility: > 90 mg/mL
[2]; water, thermodynamic from solid, Solubility
  solubility: ~0.21 mg/mL (≈ 0.826 mM)
[3]; 10 μM
  reduction of total channel open probability: 42%
[3]; 1 and 10 μM
  inhibition of the native BK channel: concentration—dependent inhibition
[3]; (XXXV) 1 (mM as printed)
  Inhibition (%), Average: 22.3%
  NPo, Average: 0.014
[3]; (XXXV) 10 (mM as printed)
  Inhibition (%), Average: 41.4%
  NPo, Average: 0.020

## CCCNc1nc(NCCC)nc(N(C)OC)n1.O=S(=O)(O)O [XXXVI, N-(4,6-Bis-n-propylamino-[1,3,5]triazin-2-yl)-N,O-dimethyl-hydroxylamine hydrogen sulfate]
Human KCNK9/TASK-3
  IC50: > 30 µM
[1]; aqueous buffer, target pH 4.0, final pH 3.79
  solubility thermodynamic: 20.8 mg/mL
[1]; aqueous buffer, target pH 4.5, final pH 4.37
  solubility thermodynamic: 3.46 mg/mL
[1]; aqueous buffer, target pH 5.0, final pH 4.52
  solubility thermodynamic: 2.73 mg/mL
[1]; aqueous buffer, target pH 5.5, final pH 5.02
  solubility thermodynamic: 0.99 mg/mL
[1]; target pH 2.5
  appearance afterwards Shaking: Clear solution
[1]; target pH 2.5, final pH 2.42
  (XXXVI) concentration: 104.1
[1]; target pH 3.0
  appearance afterwards Shaking: Clear solution
[1]; target pH 3.0, final pH 3.00
  (XXXVI) concentration: 99.8
[1]; target pH 3.5
  appearance afterwards Shaking: Clear solution
[1]; target pH 3.5, final pH 3.51
  (XXXVI) concentration: 101.6
[1]; target pH 4.0
  appearance afterwards Shaking: Precipitate
[1]; target pH 4.5
  appearance afterwards Shaking: Precipitate
[1]; target pH 5.0
  appearance afterwards Shaking: Precipitate
[1]; target pH 5.5
  appearance afterwards Shaking: Precipitate
[2]; 0.9% NaCl, listed as (XXXV) hydrogen sulfate salt, hydrogen sulfate
  solubility: >201.4 mg/mL
[2]; 30% PEG-400, listed as (XXXV) hydrogen sulfate salt, hydrogen sulfate
  solubility: >197.0 mg/mL and >198.4 mg/mL
[2]; 30% Propylene Glycol, listed as (XXXV) hydrogen sulfate salt, hydrogen sulfate
  solubility: >89.47 mg/mL
[2]; 70% PEG-400, listed as (XXXV) hydrogen sulfate salt, hydrogen sulfate
  solubility: >85.28 mg/mL and >91.43 mg/mL
[2]; 70% Propylene Glycol, listed as (XXXV) hydrogen sulfate salt, hydrogen sulfate
  solubility: >92.43 mg/mL
[2]; Acetonitrile, listed as (XXXV) hydrogen sulfate salt, hydrogen sulfate
  solubility: 68.5 mg/mL and 67.1 mg/mL
[2]; Ethanol, listed as (XXXV) hydrogen sulfate salt, hydrogen sulfate
  solubility: >212.2 mg/mL
[2]; Methanol, listed as (XXXV) hydrogen sulfate salt, hydrogen sulfate
  solubility: >98.52 mg/mL
[2]; PEG-400 (100%), listed as (XXXV) hydrogen sulfate salt, hydrogen sulfate
  solubility: 35.74 mg/mL
[2]; Propylene Glycol (100%), listed as (XXXV) hydrogen sulfate salt, hydrogen sulfate
  solubility: >94.65 mg/mL
[2]; Water, listed as (XXXV) hydrogen sulfate salt, hydrogen sulfate
  solubility: 414.5 mg/mL and 441.5 mg/mL
[2]; aqueous with cosolvent or surfactant or cyclodextrin, thermodynamic from solid, 30% PEG-400, read-out: Solubility
  solubility: ~198 mg/mL
[2]; aqueous with cosolvent or surfactant or cyclodextrin, thermodynamic from solid, 30% Propylene Glycol, read-out: Solubility
  solubility: > 93.2 mg/mL
[2]; aqueous with cosolvent or surfactant or cyclodextrin, thermodynamic from solid, 30% and 70% PEG-400, read-out: solubility
  solubility: ≥ 90 mg/mL
[2]; aqueous with cosolvent or surfactant or cyclodextrin, thermodynamic from solid, 30%, 70% and 100% propylene glycol, read-out: solubility
  solubility: ≥ 90 mg/mL
[2]; aqueous with cosolvent or surfactant or cyclodextrin, thermodynamic from solid, 70% PEG-400, read-out: Solubility
  solubility: ≥ 90 mg/mL
[2]; aqueous with cosolvent or surfactant or cyclodextrin, thermodynamic from solid, 70% Propylene Glycol, read-out: Solubility
  solubility: > 87.8 mg/mL
[2]; ethanol and methanol
  solubility: freely soluble
[2]; organic solvent or mixture, thermodynamic from solid, Acetonitrile, read-out: Solubility
  solubility: ~68 mg/mL
[2]; organic solvent or mixture, thermodynamic from solid, Ethanol, read-out: Solubility
  solubility: > 211 mg/mL
[2]; organic solvent or mixture, thermodynamic from solid, Methanol, read-out: Solubility
  solubility: > 109 mg/mL
[2]; organic solvent or mixture, thermodynamic from solid, PEG-400 (100%), read-out: Solubility
  solubility: ~36 mg/mL
[2]; organic solvent or mixture, thermodynamic from solid, Propylene Glycol (100%), read-out: Solubility
  solubility: > 92.1 mg/mL
[2]; saline or isotonic, thermodynamic from solid, 0.9% NaCl, read-out: Solubility
  solubility: > 206 mg/mL
[2]; saline or isotonic, thermodynamic from solid, 5% Dextrose, read-out: Solubility
  solubility: > 201 mg/mL
[2]; saline or isotonic, thermodynamic from solid, IV solutions (0.9% saline and 5% dextrose), read-out: solubility
  solubility: ≥ 200 mg/mL
[2]; water, thermodynamic from solid, Water, read-out: Solubility
  solubility: > 400 mg/mL
[2]; water, thermodynamic from solid, water, IV solutions (0.9% saline and 5% dextrose), ethanol, methanol, 30%, 70% and 100% propylene glycol, read-out: solubility
  solubility: > 90 mg/mL
